Laboratory results: patent US20240246946A1, “MODULATORS OF TREX1” (Constellation Pharmaceuticals, Inc., priority 2021, published 2024)

Assays:
full length human TREX1 = biological target: T1, full length human TREX1 (Homo sapiens, UniProt Q9NSU2); assay: hTREX1 Biochemical Assay (fluorescence, dsDNA substrate degradation); conditions: biochemical, read-out: hTREX1 IC50
T1 construct: N-terminally His-Tev tagged full length human TREX1; made in house; host or cells: E. coli
T1 sequence (Q9NSU2 1-314): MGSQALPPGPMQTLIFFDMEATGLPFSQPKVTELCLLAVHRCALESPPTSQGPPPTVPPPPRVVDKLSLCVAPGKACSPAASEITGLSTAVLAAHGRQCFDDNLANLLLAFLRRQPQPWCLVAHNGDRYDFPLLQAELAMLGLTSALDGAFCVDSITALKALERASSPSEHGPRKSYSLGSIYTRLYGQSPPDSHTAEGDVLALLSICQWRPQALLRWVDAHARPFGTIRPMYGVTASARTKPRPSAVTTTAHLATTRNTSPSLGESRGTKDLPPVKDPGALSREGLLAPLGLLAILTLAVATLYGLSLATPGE
In short: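 Fluorescence rises as enzyme degrades a quenched TEX615-labelled dsDNA substrate (60 nM) in 50 mM Tris, 150 mM NaCl, 5 mM MgCl2, pH 7.4. Full-length His-Tev-tagged human TREX1, 4 pM, sits with compound 4 hours at 25° C before substrate; reaction 18 hours, stopped with EDTA.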

full length mouse TREX1 = biological target: T2, full length mouse TREX1 (Mus musculus, UniProt Q91XB0); assay: mTREX1 Biochemical Assay (fluorescence, dsDNA substrate degradation); conditions: biochemical, read-out: mTREX1 IC50
T2 construct: N-terminally His-Tev tagged full length mouse TREX1; made in house; host or cells: E. coli
T2 sequence (Q91XB0 1-314): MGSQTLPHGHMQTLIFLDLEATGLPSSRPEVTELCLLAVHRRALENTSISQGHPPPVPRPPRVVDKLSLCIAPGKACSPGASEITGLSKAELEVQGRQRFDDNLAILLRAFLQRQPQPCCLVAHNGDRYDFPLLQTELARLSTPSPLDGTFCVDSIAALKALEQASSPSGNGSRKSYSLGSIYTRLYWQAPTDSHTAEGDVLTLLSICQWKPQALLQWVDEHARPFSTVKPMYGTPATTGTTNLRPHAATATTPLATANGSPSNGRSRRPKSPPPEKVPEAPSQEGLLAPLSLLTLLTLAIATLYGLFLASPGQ
In short: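 Reaction run 18 h at 25° C. with 60 nM TEX615/quencher-labelled dsDNA and 6 pM mouse TREX1 in Tris buffer (pH 7.4, 5 mM MgCl2, 1.0% DMSO), enzyme having sat 4 h with compound across 10 concentrations. EDTA quench; substrate degradation measured as fluorescence increase.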

[1] = biological target: T3, human TREX2 (residues M44-A279) (Homo sapiens, UniProt Q9BQ50); assay: hTREX2 Biochemical Assay (fluorescence, dsDNA substrate degradation); conditions: biochemical selectivity for hTREX1 vs hTREX2
T3 construct: human TREX2 (residues M44-A279, expressed in E. coli); made in house; host or cells: E. coli
T3 sequence (Q9BQ50 44-279 isoform Q9BQ50-1): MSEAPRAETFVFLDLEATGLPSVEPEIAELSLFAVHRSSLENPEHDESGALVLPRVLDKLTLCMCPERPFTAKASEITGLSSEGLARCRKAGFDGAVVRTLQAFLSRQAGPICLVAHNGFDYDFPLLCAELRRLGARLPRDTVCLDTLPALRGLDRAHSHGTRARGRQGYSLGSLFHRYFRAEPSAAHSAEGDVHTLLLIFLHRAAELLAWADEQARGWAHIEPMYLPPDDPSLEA
In short: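 Fluorogenic dsDNA degradation read at 615 nm (570 nm excitation) after EDTA quench. Final 60 nM substrate, 50 pM His-Tev-tagged enzyme, 5 mM MgCl2, pH 7.4, 1.0% DMSO; 4 h compound–enzyme preincubation then 18 h reaction, both 25 °C; 10-point titration.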

hTREX1 = biological target: T4, hTREX1 (Homo sapiens, UniProt Q9NSU2); assay: hTREX1 HCT116 Cell Assay (HCT116 dual cells, Lucia luciferase reporter of Type I interferon induction); type: cell-based; conditions: TREX1i 4 h before pBR322/BstNI transfection, read after 48 h
T4 construct: host or cells: HCT116 dual cells
T4 sequence (Q9NSU2 1-314): T1 sequence (Q9NSU2 1-314)
Text: HCT116 dual cells (Invivogen, San Diego, CA, USA) are derived from the human HCT116 colorectal carcinoma cell line. Cells have been selected for the stable integration of SEAP and Luciferase reporter genes, which expression is under the control of 5 tandem response elements for NF-KB/AP1 and STAT1/STAT2, respectively. The cell line was used to monitor Type I interferon induction and subsequent signaling by measuring the activity of the Lucia luciferase secreted in the culture medium.
HCT116 cells were plated in 96-well plate(s) at 40,000 cells/well in 100 uL DMEM supplemented with 10% FBS and 25 mM Hepes (pH 7.2-7.5). After overnight settling, cells were treated with TREX1i for 4 h (maximum DMSO fraction was 0.1%) before 1 ug/mL pBR322/BstNI restriction digest (New England Biolabs, Ipswich, MA, USA) was transfected with Lipofectamine LTX (ThermoFisher, Grand Island, NY, USA), according to product manual recommendations. Briefly, Lipofectamine LTX (0.35 uL/well) was diluted in OptiMEM (5 uL/well). pBR322/BstNI (100 ng/well) was diluted in OptiMEM (5 uL/well) before Plus reagent (0.1 uL/100 ng DNA) was added. After 5 min incubation at room temperature, the DNA mixture was mixed dropwise with the diluted Lipofectamine LTX. After an additional 10 min incubation, the transfection mix (10 uL/well) was added to the cells. Cells were maintained at 37 C for 48 h before monitoring the Lucia Luciferase activity from the cell culture medium.

| IC50 (full length human TREX1) [nM] | IC50 (full length mouse TREX1) [nM] | IC50 (hTREX1) [nM] | Structure (SMILES) | hTREX1 vs hTREX2 selectivity [1] |
| --- | --- | --- | --- | --- |
| 1 to 10 | 1 to 10 | 10 to 100 | CC(c1nc(C(=O)Nc2cnoc2)c(O)c(=O)n1C)C(c1cnc(C(F)(F)F)cn1)c1ccccc1C#N (single isomer, unassigned) [Example 118 D1E1] | B (B = 25 to 50-fold selective for hTREX1) |
| 1 to 10 | > 10 | > 100 | Cc1ccn(C(c2cc(F)ccc2Cl)C(C)c2nc(C(=O)Nc3cnoc3)c(O)c(=O)n2C)n1 (single isomer, unassigned) [Example 146 D1E1] | C (C = >50 fold selective for hTREX1) |
| < 1 | 1 to 10 | 10 to 100 | CC(c1nc(C(=O)Nc2cnoc2)c(O)c(=O)n1C)C(c1ccccc1Cl)n1cnc2ccccc21 (single isomer, unassigned) [Example 143 D1E1] | B (B = 25 to 50-fold selective for hTREX1) |
| < 1 | 1 to 10 | < 10 | Cc1cc(C)n(C(c2ccccc2C#N)C(C)c2nc(C(=O)Nc3cnoc3)c(O)c(=O)n2C)n1 (single isomer, unassigned) [Example 137 D1E1] | B (B = 25 to 50-fold selective for hTREX1) |
| < 1 | 1 to 10 | 10 to 100 | CC(c1nc(C(=O)Nc2cnoc2)c(O)c(=O)n1C)C(c1ccccc1Cl)n1nccc1C#N (single isomer, unassigned) [Example 140 D1E1] | B (B = 25 to 50-fold selective for hTREX1) |
| > 10 | > 10 | > 100 | Cc1cnc(C)c(C(c2cc(F)ccc2C#N)C(C)c2nc(C(=O)Nc3cnoc3)c(O)c(=O)n2C)n1 (single isomer, unassigned) [Example 119 D1E2] | B (B = 25 to 50-fold selective for hTREX1) |
| > 10 | > 10 | > 100 | CC(c1nc(C(=O)Nc2cnoc2)c(O)c(=O)n1C)C(c1ccccc1Cl)c1nncn1C (single isomer, unassigned) [Example 152 D1E1] | B (B = 25 to 50-fold selective for hTREX1) |
| < 1 | 1 to 10 | 10 to 100 | Cc1ccnn1C(c1ccccc1C#N)C(C)c1nc(C(=O)Nc2cnoc2)c(O)c(=O)n1C (single isomer, unassigned) [Example 138 D1E1] | B (B = 25 to 50-fold selective for hTREX1) |
| 1 to 10 | > 10 | 10 to 100 | Cc1ccnn1C(c1cc(F)ccc1Cl)C(C)c1nc(C(=O)Nc2cnoc2)c(O)c(=O)n1C (single isomer, unassigned) [Example 145 D1E1] | B (B = 25 to 50-fold selective for hTREX1) |
| < 1 | 1 to 10 | > 100 | Cc1cn(C(c2ccccc2Cl)C(C)c2nc(C(=O)Nc3cnoc3)c(O)c(=O)n2C)cn1 (single isomer, unassigned) [Example 142 D1E2] | A (A = <25 fold selective for hTREX1) |

Further lines, the compound ahead of its results:

| Structure (SMILES) | IC50 (full length human TREX1) [nM] | IC50 (full length mouse TREX1) [nM] | IC50 (hTREX1) [nM] | hTREX1 vs hTREX2 selectivity [1] |
| --- | --- | --- | --- | --- |
| Cc1c(C(c2ccccc2C#N)C(C)c2nc(C(=O)Nc3cnoc3)c(O)c(=O)n2C)cnn1C (single isomer, unassigned) [Example 4 D2E2] | 1 to 10 | > 10 | > 100 | B (B = 25 to 50-fold selective for hTREX1) |
| Cc1cnc(C(c2cc(F)ccc2Cl)C(C)c2nc(C(=O)Nc3cnoc3)c(O)c(=O)n2C)cn1 (single isomer, unassigned) [Example 117 D1E2] | < 1 | 1 to 10 | < 10 | A (A = <25 fold selective for hTREX1) |
| CC(c1nc(C(=O)Nc2cnoc2)c(O)c(=O)n1C)C(c1cnn(C(C)(C)CC#N)c1)c1cc(F)ccc1Cl (single isomer, unassigned) [Example 100 D1E1] | 1 to 10 | 1 to 10 | > 100 | A (A = <25 fold selective for hTREX1) |
| Cc1n[nH]c(C)c1C(c1ccccc1C#N)C(C)c1nc(C(=O)Nc2cnoc2)c(O)c(=O)n1C (single isomer, unassigned) [Example 95 D1E1] | < 1 | 1 to 10 | < 10 | C (C = >50 fold selective for hTREX1) |
| Cc1cnc(C(c2ccccc2Cl)C(C)c2nc(C(=O)Nc3cnoc3)c(O)c(=O)n2C)cn1 (single isomer, unassigned) [Example 116 D1E2] | < 1 | 1 to 10 | 10 to 100 | B (B = 25 to 50-fold selective for hTREX1) |
| Cc1cc(C(c2ccccc2C#N)C(C)c2nc(C(=O)Nc3cnoc3)c(O)c(=O)n2C)ccn1 (single isomer, unassigned) [Example 6 D1E2] | 1 to 10 | > 10 | > 100 | B (B = 25 to 50-fold selective for hTREX1) |
| Cc1cnn(C)c1C(c1ccccc1C#N)C(C)c1nc(C(=O)Nc2cnoc2)c(O)c(=O)n1C (single isomer, unassigned) [Example 84 D1E1] | < 1 | 1 to 10 | 10 to 100 | B (B = 25 to 50-fold selective for hTREX1) |
| CC(c1nc(C(=O)Nc2cnoc2)c(O)c(=O)n1C)C(c1cnn(CC2COC2)c1)c1ccccc1Cl (single isomer, unassigned) [Example 88 D1E1] | < 1 | 1 to 10 | > 100 | A (A = <25 fold selective for hTREX1) |
| Cc1cnc(C)c(C(c2ccccc2C#N)C(C)c2nc(C(=O)Nc3cnoc3)c(O)c(=O)n2C)n1 (single isomer, unassigned) [Example 82 D2E1] | 1 to 10 | > 10 | > 100 | C (C = >50 fold selective for hTREX1) |
| CCn1cc(C(c2cc(F)ccc2Cl)C(C)c2nc(C(=O)Nc3cnoc3)c(O)c(=O)n2C)cn1 (single isomer, unassigned) [Example 60 D1E1] | < 1 | 1 to 10 | 10 to 100 | B (B = 25 to 50-fold selective for hTREX1) |
| CC(c1nc(C(=O)Nc2cnoc2)c(O)c(=O)n1C)C(c1cnn(C2COC2)c1)c1ccccc1C#N (single isomer, unassigned) [Example 106 D1E1] | < 1 | 1 to 10 | 10 to 100 | B (B = 25 to 50-fold selective for hTREX1) |
